Reference: patent US20210045385A1, “PYRIDAZINONE-SUBSTITUTED KETOXIMES AS HERBICIDES” (FMC Corporation, priority 2018, published 2021)

Columns and labels:
Type in all cases: in vivo
[1] = system: Italian ryegrass (Lolium mutiflorum); assay: Test C preemergence, visual plant response rating
Procedure, shortened: (§1)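 Compounds in a non-phytotoxic solvent with surfactant were applied as a directed soil spray preemergence or to 2–10 cm, one- to two-leaf plants postemergence, in loam–sand soil. After about 10 d in a greenhouse, injury was visually rated against untreated controls on a 0–100 scale (100 = complete control).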

[2] = system: barnyardgrass (Echinochloa crus-galli); assay: Test C preemergence, visual plant response rating
Procedure, shortened: as §1

[3] = system: foxtail, giant (giant foxtail, Setaria faberi); assay: Test C preemergence, visual plant response rating
Procedure, shortened: as §1

kochia (Bassia scoparia) [4] = assay: Test C preemergence, visual plant response rating
Procedure, shortened: as §1

[5] = system: pigweed (Amaranthus retroflexus); assay: Test C preemergence, visual plant response rating
Procedure, shortened: as §1

[6] = system: Italian ryegrass (Lolium mutiflorum); assay: Test C postemergence, visual plant response rating
Procedure, shortened: as §1

[7] = system: barnyardgrass (Echinochloa crus-galli); assay: Test C postemergence, visual plant response rating
Procedure, shortened: as §1

[8] = system: blackgrass (Alopecurus myosuroides); assay: Test C postemergence, visual plant response rating
Procedure, shortened: as §1

corn (Zea mays) = assay: Test C postemergence, visual plant response rating
Procedure, shortened: as §1

[9] = system: foxtail, giant (giant foxtail, Setaria faberi); assay: Test C postemergence, visual plant response rating
Procedure, shortened: as §1

[10] = system: galium (catchweed bedstraw, Galium aparine); assay: Test C postemergence, visual plant response rating
Procedure, shortened: as §1

kochia (Bassia scoparia) [11] = assay: Test C postemergence, visual plant response rating
Procedure, shortened: as §1

[12] = system: pigweed (Amaranthus retroflexus); assay: Test C postemergence, visual plant response rating
Procedure, shortened: as §1

[13] = system: ragweed (common ragweed, Ambrosia artemisiifolia); assay: Test C postemergence, visual plant response rating
Procedure, shortened: as §1

[14] = system: wheat (Triticum aestivum); assay: Test C postemergence, visual plant response rating
Procedure, shortened: as §1

[15] = system: barnyardgrass (Echinochloa crus-galli); assay: Test D flooded paddy test, visual plant response rating; settings: 250 g ai/ha, scale 0 to 100 (0 no effect, 100 complete control), 13 to 15 d
Procedure, shortened: (§2)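 Plants were grown to the 2-leaf stage, pots flooded to 3 cm above soil, and compound applied directly into the paddy water, with the depth held throughout. After 13 to 15 d in a greenhouse, response was rated visually against untreated controls on a 0–100 scale (0 no effect, 100 complete control).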

[16] = system: duck salad (Heteranthera limosa); assay: as above; settings: 250 g ai/ha, scale 0 to 100 (0 no effect, 100 complete control), 13 to 15 d
Procedure, shortened: as §2

rice (Oryza sativa) = assay: as above; settings: 250 g ai/ha, scale 0 to 100 (0 no effect, 100 complete control), 13 to 15 d
Procedure, shortened: as §2

[17] = system: sedge umbrella (small-flower umbrella sedge, Cyperus difformis); assay: as above; settings: 250 g ai/ha, scale 0 to 100 (0 no effect, 100 complete control), 13 to 15 d
Procedure, shortened: as §2

[18] = Test C, 31 g ai/ha, 0 is no effect, 100 is complete control
[19] = Test C, postemergence, 125 g ai/ha
[20] = Test C, 125 g ai/ha, 0 is no effect, 100 is complete control

Row | SMILES | Ryegrass, Italian plant response rating (0 to 100 scale) [1, 18] | Barnyardgrass plant response rating (0 to 100 scale) [2, 18] | Foxtail, Giant plant response rating (0 to 100 scale) [3, 18] | Kochia plant response rating (0 to 100 scale) (kochia (Bassia scoparia) [4]; [18]) | Pigweed plant response rating (0 to 100 scale) [5, 18] | Ryegrass, Italian plant response rating (0 to 100 scale) ([6]; Postemergence, 31 g ai/ha) | Ryegrass, Italian plant response rating (0 to 100 scale) [6, 19] | Barnyardgrass plant response rating (0 to 100 scale) ([7]; Postemergence, 31 g ai/ha) | Barnyardgrass plant response rating (0 to 100 scale) [7, 19] | Blackgrass plant response rating (0 to 100 scale) ([8]; Postemergence, 31 g ai/ha) | Blackgrass plant response rating (0 to 100 scale) [8, 19] | Corn plant response rating (0 to 100 scale) (corn (Zea mays); Postemergence, 31 g ai/ha) | Corn plant response rating (0 to 100 scale) (corn (Zea mays); [19]) | Foxtail, Giant plant response rating (0 to 100 scale) ([9]; Postemergence, 31 g ai/ha) | Foxtail, Giant plant response rating (0 to 100 scale) [9, 19] | Galium plant response rating (0 to 100 scale) ([10]; Postemergence, 31 g ai/ha) | Galium plant response rating (0 to 100 scale) [10, 19] | Kochia plant response rating (0 to 100 scale) (kochia (Bassia scoparia) [11]; Postemergence, 31 g ai/ha) | Kochia plant response rating (0 to 100 scale) (kochia (Bassia scoparia) [11]; [19]) | Pigweed plant response rating (0 to 100 scale) ([12]; Postemergence, 31 g ai/ha) | further results
1 | CCCCO/N=C(\c1cc(Cl)cc(Cl)c1Cl)c1c(O)c(C)nn(C)c1=O [Compound 183] | 0 | 0 | 40 | 0 | 0 | 40 | 60 | 0 | 40 | 0 | 0 | 0 | 0 | 30 | 80 | 10 | 30 | 0 | 10 | 0 | Ryegrass, Italian plant response rating (0 to 100 scale) ([1]; 125 g ai/ha): 80; Barnyardgrass plant response rating (0 to 100 scale) ([2]; 125 g ai/ha): 70; Foxtail, Giant plant response rating (0 to 100 scale) ([3]; 125 g ai/ha): 100; Kochia plant response rating (0 to 100 scale) (kochia (Bassia scoparia) [4]; 125 g ai/ha): 0; Pigweed plant response rating (0 to 100 scale) ([5]; 125 g ai/ha): 10; Pigweed plant response rating (0 to 100 scale) [12, 19]: 10; Ragweed plant response rating (0 to 100 scale) ([13]; Postemergence, 31 g ai/ha): 20; Ragweed plant response rating (0 to 100 scale) [13, 19]: 100; Wheat plant response rating (0 to 100 scale) ([14]; Postemergence, 31 g ai/ha): 0; Wheat plant response rating (0 to 100 scale) [14, 19]: 0; Plant response rating, Barnyardgrass (Flood) [15]: 0; Plant response rating, Ducksalad (Flood) [16]: 0; Plant response rating, Rice (Flood) (rice (Oryza sativa)): 0; Plant response rating, Sedge, Umbrella (Flood) [17]: 0
2 | CON=C(c1cc(Cl)cc(Cl)c1)c1c(O)c(C)nn(C)c1=O [Compound 188] | 80 | 30 | 90 | 10 | 70 | 80 | 100 | 30 | 60 | 40 | 30 | 0 | 30 | 40 | 90 | 100 | 100 | 80 | 100 | 80 | Ryegrass, Italian plant response rating (0 to 100 scale) ([1]; 125 g ai/ha): 100; Barnyardgrass plant response rating (0 to 100 scale) ([2]; 125 g ai/ha): 100; Foxtail, Giant plant response rating (0 to 100 scale) ([3]; 125 g ai/ha): 100; Kochia plant response rating (0 to 100 scale) (kochia (Bassia scoparia) [4]; 125 g ai/ha): 100; Pigweed plant response rating (0 to 100 scale) ([5]; 125 g ai/ha): 90; Pigweed plant response rating (0 to 100 scale) [12, 19]: 90; Ragweed plant response rating (0 to 100 scale) ([13]; Postemergence, 31 g ai/ha): 60; Ragweed plant response rating (0 to 100 scale) [13, 19]: 100; Wheat plant response rating (0 to 100 scale) ([14]; Postemergence, 31 g ai/ha): 10; Wheat plant response rating (0 to 100 scale) [14, 19]: 50; Plant response rating, Barnyardgrass (Flood) [15]: 15; Plant response rating, Ducksalad (Flood) [16]: 70; Plant response rating, Rice (Flood) (rice (Oryza sativa)): 0; Plant response rating, Sedge, Umbrella (Flood) [17]: 85
3 | CC(C)O/N=C(\c1c(O)c(Cl)nn(C)c1=O)c1cc(Br)cc2ccccc12 [Compound 233] | 0 | 90 | 60 | 0 | 90 | 0 | 0 | 40 | 60 | 0 | 30 | 0 | 10 | 30 | 80 | 60 | 90 | 0 | 10 | 60 | Ryegrass, Italian plant response rating (0 to 100 scale) [1, 20]: 0; Barnyardgrass plant response rating (0 to 100 scale) [2, 20]: 100; Foxtail, Giant plant response rating (0 to 100 scale) [3, 20]: 100; Kochia plant response rating (0 to 100 scale) (kochia (Bassia scoparia) [4]; [20]): 0; Pigweed plant response rating (0 to 100 scale) [5, 20]: 90; Pigweed plant response rating (0 to 100 scale) [12, 19]: 90; Ragweed plant response rating (0 to 100 scale) ([13]; Postemergence, 31 g ai/ha): 100; Ragweed plant response rating (0 to 100 scale) [13, 19]: 100; Wheat plant response rating (0 to 100 scale) ([14]; Postemergence, 31 g ai/ha): 0; Wheat plant response rating (0 to 100 scale) [14, 19]: 0; Plant response rating, Barnyardgrass (Flood) [15]: 30; Plant response rating, Ducksalad (Flood) [16]: 0; Plant response rating, Rice (Flood) (rice (Oryza sativa)): 0; Plant response rating, Sedge, Umbrella (Flood) [17]: 85
4 | Cc1nn(C)c(=O)c(C(=NOCC2CC2)c2cc(Cl)cc(Cl)c2Cl)c1O [Compound 182] | 30 | 0 | 70 | 0 | 0 | 70 | 100 | 50 | 60 | 10 | 10 | 0 | 30 | 70 | 90 | 70 | 100 | 10 | 70 | 10 | Ryegrass, Italian plant response rating (0 to 100 scale) ([1]; 125 g ai/ha): 100; Barnyardgrass plant response rating (0 to 100 scale) ([2]; 125 g ai/ha): 90; Foxtail, Giant plant response rating (0 to 100 scale) ([3]; 125 g ai/ha): 100; Kochia plant response rating (0 to 100 scale) (kochia (Bassia scoparia) [4]; 125 g ai/ha): 0; Pigweed plant response rating (0 to 100 scale) ([5]; 125 g ai/ha): 70; Pigweed plant response rating (0 to 100 scale) [12, 19]: 50; Ragweed plant response rating (0 to 100 scale) ([13]; Postemergence, 31 g ai/ha): 40; Ragweed plant response rating (0 to 100 scale) [13, 19]: 100; Wheat plant response rating (0 to 100 scale) ([14]; Postemergence, 31 g ai/ha): 0; Wheat plant response rating (0 to 100 scale) [14, 19]: 70; Plant response rating, Barnyardgrass (Flood) [15]: 0; Plant response rating, Ducksalad (Flood) [16]: 0; Plant response rating, Rice (Flood) (rice (Oryza sativa)): 0; Plant response rating, Sedge, Umbrella (Flood) [17]: 0
